Here are results for twelve compounds from patent publication US8288365B2, “Phenazopyridine compounds” (Pinnacle Pharmaceuticals, Inc., priority 2008, dated 2012).

Values after ≈ are worked out from the molar mass of the structure shown. Like-named read-outs stand apart in the source and are kept apart here.

Data set [1] is described as follows: Solubility of PAP prodrugs in 0.1N HCl. Type of data set: physicochemical. The settings on record: for solubility: simulated gastric fluid.
Data set [2] in a line: Oral bioavailability of PAP prodrugs in rats (plasma PAP by LC-MS-MS). The data set is classed as in vivo. How it is done:
The oral bioavailability of PAP (phenazopyridine) prodrugs was evaluated in healthy rats. All the PAP amide (amino acid derivatives) bases were dissolved in 0.1N HCl (the same result can be obtained with a lower molarity), while the carbamates were dissolved in PEG-400 due to the very poor aqueous solubility of the PAP-carbamates. In general, all of the amino acid amide derivatives of PAP had higher water solubility than those of the PAP-carbamates. In another PK study, PAP.HCL salt, Gly-PAP.HCl salt and Gly-PAP.mesylate salt were dissolved in water, affording a clear solution in each case prior to oral administration.
(§1) The rats were fasted overnight prior to dosing. Appropriate amount of each compound was administered via gastric gavages, and at predetermined time (1, 2, 4, 6, and 24 h) blood samples were withdrawn from the rats. The whole blood was centrifuged immediately, and supernatant (plasma) was collected. The plasma samples were assayed for PAP using LC-MS-MS.

A short description of data set [3]: PAP pharmacokinetics in rats after oral Gly-PAP salt forms. Type of data set: in vivo. The settings on record: PAP in rat plasma, 2.5 mg/kg PAP base equivalent (2.8 for free base). How it is done: The oral bioavailability of PAP (phenazopyridine) prodrugs was evaluated in healthy rats.
as §1
The pharmacokinetics of various salts of Gly-PAP were compared following oral administration to rats.

A short description of data set [4]: Pharmacokinetics of PAP and intact Gly-PAP in dogs (plasma and urine) after oral gavage. The data set is classed as in vivo. How it is done:
Pharmacokinetics for PAP and Gly-PAP (intact prodrug) were assessed in dogs following administration by oral gavage of mg/kg doses. Blood (approximately 2 mL) was collected from a jugular vein into tubes containing lithium heparin anticoagulant predose and at 0.083, 0.25, 0.5, 1, 2, 4, 8, 12, and 24 hours postdose. Urine was collected into plastic containers surrounded by wet ice predose (−18 to 0) and 0 to 24 hours postdose. The volume of each sample was recorded. Plasma and urine samples were assayed for PAP and Gly-PAP by LC-MS-MS.

Another data set deals with dogs. In words: Emesis in dogs after oral TID dosing. Type of data set: in vivo. The settings on record: dogs (1 male/1 female), oral gavage TID, 24.8 mg/kg phenazopyridine base equivalent per dose. How it is done: Dogs (1 male/1 female) were dosed by oral gavage 3 times (TID), once every 8 hours, with 40 mg/kg Gly-PAP or 29 mg/kg phenazopyridine HCl (doses contained an equivalent amount of 24.8 mg/kg phenazopyridine base). […] Results showing reduction of the GI side effect of emesis are illustrated in FIG. 18.

The subject of data set [5] is rats. The following applies: long term (2 years); cited from earlier work.
The subject of a further data set is female mice. The following applies: cited from earlier work.
For data set [6], the system named is rats. The settings on record: cited from earlier work.
In a further data set the test system is mice. The settings on record: i.p.; cited from earlier work.
The conditions of data set [7]: cited from earlier work.
The test system of the next data set is mammalian cells. The settings on record: cited from earlier work.
The subject of data set [8] is rats. The settings on record: doses up to 50 mg/kg/day or 110 mg/kg/day; cited from earlier work.
For a further data set, the system named is rabbits. The following applies: 39 mg/kg/day; cited from earlier work.
The test system of a further data set is bacteria. The settings on record: cited from earlier work.
Data set [9] can be described thus: Pharmacokinetics of PAP and intact Gly-PAP in male rats after oral gavage. Type of data set: in vivo. How it is done: Pharmacokinetics for PAP and Gly-PAP (intact prodrug) were assessed in male rats following administration by oral gavage of mg/kg doses. Rats were fasted overnight prior to dosing. Blood samples were withdrawn at 0.25, 0.5, 1, 2, 4, 6, and 24 hours. The whole blood was centrifuged immediately, and supernatant (plasma) was collected. The plasma samples were assayed for PAP and Gly-PAP by LC-MS-MS.

In general, solubility refers to how much of the substance goes into solution per volume. `CCOC(=O)Nc1ccc(/N=N/c2ccccc2)c(N)n1` [Ethylcarbamyl-PAP, Ethylcarbamyl-Phenazopyridine]: the solubility in data set [1] was less than 100 µg/mL.

In the case of `Nc1nc(NC(=O)OCc2ccccc2)ccc1/N=N/c1ccccc1` [Benzylcarbamyl-PAP, Benzylcarbamyl-Phenazopyridine], the solubility in [1] is less than 100 µg/mL.

As usually defined, the Tmax is the time from dosing to the highest level. What is called Cmax is the peak of the concentration-time curve. Regarding phenazopyridine hydrochloride [PAP•HCl], the “Solubility in 0.1N HCl” value in data set [1] is 500 µg/mL. The Tmax was less than 60 min in data set [2] (fasted rats, single oral gavage) and 15 min in [3]. Moreover, in [2] (fasted rats, single oral gavage, 0-24 hr), the AUC0-24 was found to be 182 ± 12 ng·h/mL. For the same compound, the AUC0-6 in data set [3] (SD printed in the row below) stood at 105 ng·h/mL. Also, the Cmax in [3] (water vehicle (0.1N HCl for free base)) was determined as 58 ng/mL. Moreover, the “Plasma bioavailability of phenazopyridine” value in [4] (phenazopyridine HCl versus equivalent Gly-PAP) is listed as “greater plasma bioavailability”. Also, the Observations of vomitus entry in the data set on dogs is given as “four observations of vomitus”. Also, the “Tumour induction on long term administration” value in the data set on rats [5] was “induced adenomas and adenocarcinomas in the large intestine”. Moreover, the “Tumour induction on lifetime administration” value with female mice is “caused hepatocellular adenomas and carcinomas”.

Take `Nc1nc(NC(=O)[C@@H](N)Cc2c[nH]c3ccccc23)ccc1/N=N/c1ccccc1` [Tryptophanyl-PAP, Tryptophanyl-Phenazopyridine]: the solubility in data set [1] is 500 µg/mL (≈ 1250 µM). For the same compound, the “Tmax” value in data set [2] (rats, oral) is “longer”.

Consider `Nc1ccc(/N=N/c2ccccc2)c(N)n1` [Phenazopyridine], for which the “Acute toxicity LD50” value with rats [6] (i.p.) is reported as 200 mg/kg; in the data set with rats [6] (oral), 472 mg/kg; with mice, 180 mg/kg. Besides, the “Excreted unchanged in urine” value in data set [7] (oral) is recorded as “up to 65%”. Besides, the “Single dose cleared within 24 hours” value in data set [7] (within 24 hours) was “approximately 90%”. In addition, the Mutagenicity and clastogenicity result in the data set with mammalian cells is “mutagenic and clastogenic”. The “Effects on fertility or embryo-fetal development” value in the data set on rats [8] and with rabbits was “no effects on fertility or embryo-fetal development” throughout. Also, in the data set with bacteria, the Mutagenicity result was “mutagenic”.

`CC(C)[C@H](N)C(=O)Nc1ccc(/N=N/c2ccccc2)c(N)n1` [Valyl-PAP, Valyl-Phenazopyridine]: the solubility in [1] is more than 2500 µg/mL.

For `C[C@H](N)C(=O)Nc1ccc(/N=N/c2ccccc2)c(N)n1` [Alanyl-PAP, Alanyl-Phenazopyridine], the solubility in data set [1] was 2000 µg/mL (≈ 7030 µM).

Turning to `NCC(=O)Nc1ccc(/N=N/c2ccccc2)c(N)n1` [Gly-PAP, Glycyl-Phenazopyridine (6-N-Glycylphenazopyridine)], the solubility in data set [1] is more than 2000 µg/mL. The “AUC of phenazopyridine from 0.9 mg/kg Gly-PAP versus 2.8 mg/kg phenazopyridine HCl” value in data set [9] (0.6 versus 2.5 mg/kg phenazopyridine base) is on record as “approximately equal AUC”. Besides, the “Plasma levels of Gly-PAP relative to those for phenazopyridine from Gly-PAP” value in [9] (Gly-PAP 4.0 mg/kg) is reported as less than 5%. For the same compound, the “Amount of phenazopyridine delivered to the urine” value in [4] (8.1 mg/kg Gly-PAP versus equivalent phenazopyridine HCl, urine 0 to 24 hours) is “a greater amount of phenazopyridine was delivered to the urine”. Also, the “Exposure (AUC0-24) to Gly-PAP relative to that for phenazopyridine” value in [4] (Gly-PAP 8.1 mg/kg) is “less than 10%”. Further, in data set [4] (Gly-PAP compared to phenazopyridine HCl), the “Plasma Tmax for phenazopyridine (comparison)” value is “increased”. In addition, the Observations of vomitus entry with dogs is given as “single observation of vomitus”.

Take `Nc1nc(NC(=O)[C@@H](N)Cc2c[nH]cn2)ccc1/N=N/c1ccccc1` [Histidinyl-PAP, Histidinyl-Phenazopyridine]: the solubility in data set [1] is more than 10000 µg/mL.

For `CC(C)COC(=O)Nc1ccc(/N=N/c2ccccc2)c(N)n1` [Isobutylcarbamyl-PAP, Isobutylcarbamyl-Phenazopyridine], in data set [1], the solubility is less than 100 µg/mL. In data set [2] (rats, oral), the “Tmax” value was “longer”.

On to `CSCC[C@H](N)C(=O)Nc1ccc(/N=N/c2ccccc2)c(N)n1` [Methionyl-PAP, Methionyl-Phenazopyridine], for which the solubility in data set [1] is 1000 µg/mL (≈ 2900 µM).

For the compound `NCCCC[C@H](N)C(=O)Nc1ccc(/N=N/c2ccccc2)c(N)n1` [Lysyl-PAP, Lysyl-Phenazopyridine], the solubility in data set [1] is more than 2500 µg/mL.
